# From patent publication US20140213446A1, “HERBICIDAL COMPOSITIONS AND METHODS USING COMBINATIONS OF 4-AMINO-3-CHLORO-6-(4-CHLORO-2-FLUORO-3-METHOXYPHENYL)PYRIDINE-2-CARBOXYLIC ACID OR A DERIVATIVE THEREOF AND AN ARYLOXYPHENOXY PROPIONATE ACCASE INHIBITOR HERBICIDE” (DOW AGROSCIENCES LLC, priority 2013, published 2014)
# “And” between values parts separate entries of the source, which are not always exact repeats. Equal values may be shown once.
# Key:
# Assay in all cases: Postemergent herbicidal activity, greenhouse
# Assay type in all cases: in vivo
# [1] = system: ABUTH Abutilon theophrasti Medik. (velvetleaf)
# Description: (§1) Evaluation of Postemergent Herbicidal Activity. Seeds or nutlets of the desired test plant species were planted in Sun Gro Metro-Mix® 360 planting mixture, which typically has a pH of 6.0 to 6.8 and an organic matter content of about 30 percent, in plastic pots with a surface area of 64 square centimeters (cm^2). When required to ensure good germination and healthy plants, a fungicide treatment and/or other chemical or physical treatment was applied. The plants were grown for 7-21 days (d) in a greenhouse with an approximate 15 hour (h) photoperiod which was maintained at about 23-29° C. during the day and 22-28° C. during the night. Nutrients and water were added on a regular basis and supplemental lighting was provided with overhead metal halide 1000-Watt lamps as necessary. The plants were employed for testing when they reached the first or second true leaf stage.
# (§2) A weighed amount, determined by the highest rate to be tested, of each test compound was placed in a 25 milliliter (mL) glass vial and was dissolved in 4 mL of a 97:3 volume per volume (v/v) mixture of acetone and dimethyl sulfoxide (DMSO) to obtain concentrated stock solutions. […] The concentrated stock solutions obtained were diluted with 20 mL of an aqueous mixture containing acetone, water, isopropyl alcohol, DMSO, Atplus 411F crop oil concentrate, and Triton® X-155 surfactant in a 48.5:39:10:1.5:1.0:0.02 v/v ratio to obtain spray solutions containing the highest application rates. Additional application rates were obtained by serial dilution of 12 mL of the high rate solution into a solution containing 2 mL of a 97:3 v/v mixture of acetone and DMSO and 10 mL of an aqueous mixture containing acetone, water, isopropyl alcohol, DMSO, Atplus 411F crop oil concentrate, and Triton X-155 surfactant in a 48.5:39:10:1.5:1.0:0.02 v/v ratio to obtain ½X, ¼X, ⅛X and 1/16X rates of the high rate. Compound requirements are based upon a 12 mL application volume at a rate of 187 liters per hectare (L/ha). Formulated compounds were applied to the plant material with an overhead Mandel track sprayer equipped with 8002E nozzles calibrated to deliver 187 L/ha over an application area of 0.503 square meters (m^2) at a spray height of 18 inches ([…]) above the average plant canopy height. Control plants were sprayed in the same manner with the solvent blank.
# (§3) Treatments consisted of the methyl ester of 4-amino-3-chloro-6-(4-chloro-2-fluoro-3-methoxyphenyl)pyridine-2-carboxylic acid (Cmpd 1) as technical grade material and fluazifop-P-butyl (Fusilade® DX), haloxyfop-P-methyl (GALLANT® super), and quizalofop-P-ethyl (Assure® II) alone and in combination. The form of compound of formula (I) and fluazifop-P-butyl, haloxyfop-P-methyl, and quizalofop-P-ethyl were applied on an acid equivalent basis.
# (§4) The treated plants and control plants were placed in a greenhouse as described above and watered by subirrigation to prevent wash-off of the test compounds. After 14 d, the condition of the test plants as compared with that of the untreated plants was determined visually and scored on a scale of 0 to 100 percent where 0 corresponds to no injury and 100 corresponds to complete kill.
# (§5) Results of testing mixtures in accordance with this disclosure and of the components of the mixtures separately against various common weeds in greenhouse trials are reported in the following tables. The reported values are of percent (%) control or percent (%) injury, visually rated. Colby's equation was used to determine the herbicidal effects expected from the mixtures (Colby, S. R. Calculation of the synergistic and antagonistic response of herbicide combinations. Weeds 1967, 15, 20-22.).
# (§6) More specifically, the following equation was used to calculate the expected activity of mixtures containing two active ingredients, A and B:
# (§7) A=observed efficacy of active ingredient A at the same concentration as used in the mixture; B=observed efficacy of active ingredient B at the same concentration as used in the mixture. […]
# [2] = system: AMARE Amaranthus retroflexus L. (redroot pigweed)
# Description: as §1, §2, §3, §4, §5, §6, §7
# [3] = system: AVEFA Avena fatua L. (wild oat)
# Description: as §1, §2, §3, §4, §5, §6, §7
# [4] = system: BRSNW Brassica napus (winter oilseed rape)
# Description: as §1, §2, §3, §4, §5, §6, §7
# [5] = system: CHEAL Chenopodium album L. (common lambsquarters)
# Description: as §1, §2, §3, §4, §5, §6, §7
# [6] = system: CIRAR Cirsium arvense (L.) Scop. (Canada thistle)
# Description: as §1, §2, §3, §4, §5, §6, §7
# [7] = system: CYPES Cyperus esculentus L. (yellow nutsedge)
# Description: as §1, §2, §3, §4, §5, §6, §7
# [8] = system: DIGSA Digitaria sanguinalis (L.) Scop. (large crabgrass)
# Description: as §1, §2, §3, §4, §5, §6, §7
# [9] = system: EPHHL Euphorbia heterophylla L. (wild poinsettia)
# Description: as §1, §2, §3, §4, §5, §6, §7
# [10] = system: GLXMA Glycine max (soybean)
# Description: as §1, §2, §3, §4, §5, §6, §7
# [11] = system: HELAN Helianthus annuus L. (common sunflower)
# Description: as §1, §2, §3, §4, §5, §6, §7
# [12] = system: IPOHE Ipomoea hederacea (L.) Jacq. (ivyleaf momingglory)
# Description: as §1, §2, §3, §4, §5, §6, §7
# [13] = system: SETFA Setaria faberi Herrm. (giant foxtail)
# Description: as §1, §2, §3, §4, §5, §6, §7
# [14] = system: SORVU Sorghum vulgare (common sorghum)
# Description: as §1, §2, §3, §4, §5, §6, §7
# [15] = system: STEME Stellaria media (L.) Vill. (common chickweed)
# Description: as §1, §2, §3, §4, §5, §6, §7
# [16] = system: VIOTR Viola tricolor L. (wild violet)
# Description: as §1, §2, §3, §4, §5, §6, §7
structure (smiles),measurement,setting,value
"COC(=O)c1nc(-c2ccc(Cl)c(OC)c2F)cc(N)c1Cl [Cmpd 1, methyl ester of 4-amino-3-chloro-6-(4-chloro-2-fluoro-3-methoxyphenyl)pyridine-2-carboxylic acid]",Visual Growth Reduction (%) 14 DAA Obs,[1]; Cmpd 1 1.25 g ae/ha,80%
same,Visual Growth Reduction (%) 14 DAA Obs,[1]; Cmpd 1 2.5 g ae/ha,85%
same,Visual Growth Reduction (%) 14 DAA Obs,[1]; Cmpd 1 5 g ae/ha,90%
same,Visual Growth Reduction (%) 14 DAA Obs,[2]; Cmpd 1 1.25 g ae/ha,50%
same,Visual Growth Reduction (%) 14 DAA Obs,[2]; Cmpd 1 2.5 g ae/ha,60%
same,Visual Growth Reduction (%) 14 DAA Obs,[2]; Cmpd 1 5 g ae/ha,90%
same,Visual Growth Reduction (%) 14 DAA Obs,[3]; Cmpd 1 1.25 g ae/ha,0%
same,Visual Growth Reduction (%) 14 DAA Obs,[3]; Cmpd 1 2.5 g ae/ha,0%
same,Visual Growth Reduction (%) 14 DAA Obs,[3]; Cmpd 1 5 g ae/ha,0%
same,Visual Growth Reduction (%) 14 DAA Obs,[4]; Cmpd 1 1.25 g ae/ha,0%
same,Visual Growth Reduction (%) 14 DAA Obs,[4]; Cmpd 1 2.5 g ae/ha,5%
same,Visual Growth Reduction (%) 14 DAA Obs,[4]; Cmpd 1 5 g ae/ha,20%
same,Visual Growth Reduction (%) 14 DAA Obs,[5]; Cmpd 1 1.25 g ae/ha,70%
same,Visual Growth Reduction (%) 14 DAA Obs,[5]; Cmpd 1 2.5 g ae/ha,80%
same,Visual Growth Reduction (%) 14 DAA Obs,[5]; Cmpd 1 5 g ae/ha,93%
same,Visual Growth Reduction (%) 14 DAA Obs,[6]; Cmpd 1 1.25 g ae/ha,30%
same,Visual Growth Reduction (%) 14 DAA Obs,[6]; Cmpd 1 2.5 g ae/ha,50% and 30%
same,Visual Growth Reduction (%) 14 DAA Obs,[6]; Cmpd 1 5 g ae/ha,30%
same,Visual Growth Reduction (%) 14 DAA Obs,[7]; Cmpd 1 1.25 g ae/ha,50%
same,Visual Growth Reduction (%) 14 DAA Obs,[7]; Cmpd 1 2.5 g ae/ha,90%
same,Visual Growth Reduction (%) 14 DAA Obs,[7]; Cmpd 1 5 g ae/ha,93%
same,Visual Growth Reduction (%) 14 DAA Obs,[8]; Cmpd 1 1.25 g ae/ha,0%
same,Visual Growth Reduction (%) 14 DAA Obs,[8]; Cmpd 1 2.5 g ae/ha,0%
same,Visual Growth Reduction (%) 14 DAA Obs,[8]; Cmpd 1 5 g ae/ha,0%
same,Visual Growth Reduction (%) 14 DAA Obs,[9]; Cmpd 1 1.25 g ae/ha,95%
same,Visual Growth Reduction (%) 14 DAA Obs,[9]; Cmpd 1 2.5 g ae/ha,95%
same,Visual Growth Reduction (%) 14 DAA Obs,[9]; Cmpd 1 5 g ae/ha,95%
same,Visual Growth Reduction (%) 14 DAA Obs,[10]; Cmpd 1 1.25 g ae/ha,70%
same,Visual Growth Reduction (%) 14 DAA Obs,[10]; Cmpd 1 2.5 g ae/ha,95%
same,Visual Growth Reduction (%) 14 DAA Obs,[10]; Cmpd 1 5 g ae/ha,97%
same,Visual Growth Reduction (%) 14 DAA Obs,[11]; Cmpd 1 1.25 g ae/ha,20%
same,Visual Growth Reduction (%) 14 DAA Obs,[11]; Cmpd 1 2.5 g ae/ha,20%
same,Visual Growth Reduction (%) 14 DAA Obs,[11]; Cmpd 1 5 g ae/ha,40%
same,Visual Growth Reduction (%) 14 DAA Obs,[12]; Cmpd 1 1.25 g ae/ha,10%
same,Visual Growth Reduction (%) 14 DAA Obs,[12]; Cmpd 1 2.5 g ae/ha,20%
same,Visual Growth Reduction (%) 14 DAA Obs,[12]; Cmpd 1 5 g ae/ha,20%
same,Visual Growth Reduction (%) 14 DAA Obs,[13]; Cmpd 1 1.25 g ae/ha,0%
same,Visual Growth Reduction (%) 14 DAA Obs,[13]; Cmpd 1 2.5 g ae/ha,0%
same,Visual Growth Reduction (%) 14 DAA Obs,[13]; Cmpd 1 5 g ae/ha,30%
same,Visual Growth Reduction (%) 14 DAA Obs,[14]; Cmpd 1 1.25 g ae/ha,0%
same,Visual Growth Reduction (%) 14 DAA Obs,[14]; Cmpd 1 2.5 g ae/ha,0%
same,Visual Growth Reduction (%) 14 DAA Obs,[14]; Cmpd 1 5 g ae/ha,0%
same,Visual Growth Reduction (%) 14 DAA Obs,[15]; Cmpd 1 1.25 g ae/ha,30%
same,Visual Growth Reduction (%) 14 DAA Obs,[15]; Cmpd 1 2.5 g ae/ha,20%
same,Visual Growth Reduction (%) 14 DAA Obs,[15]; Cmpd 1 5 g ae/ha,40%
same,Visual Growth Reduction (%) 14 DAA Obs,[16]; Cmpd 1 1.25 g ae/ha,10%
same,Visual Growth Reduction (%) 14 DAA Obs,[16]; Cmpd 1 2.5 g ae/ha,10%
same,Visual Growth Reduction (%) 14 DAA Obs,[16]; Cmpd 1 5 g ae/ha,30%
"COC(=O)[C@@H](C)Oc1ccc(Oc2ncc(C(F)(F)F)cc2Cl)cc1 [Haloxyfop-P, haloxyfop-P-methyl]",Visual Growth Reduction (%) 14 DAA Obs,[2]; Haloxyfop-P 35 g ae/ha,0%
same,Visual Growth Reduction (%) 14 DAA Obs,[2]; Haloxyfop-P 70 g ae/ha,0%
same,Visual Growth Reduction (%) 14 DAA Obs,[2]; Haloxyfop-P 140 g ae/ha,0%
same,Visual Growth Reduction (%) 14 DAA Obs,[4]; Haloxyfop-P 35 g ae/ha,0%
same,Visual Growth Reduction (%) 14 DAA Obs,[4]; Haloxyfop-P 70 g ae/ha,0%
same,Visual Growth Reduction (%) 14 DAA Obs,[4]; Haloxyfop-P 140 g ae/ha,0%
same,Visual Growth Reduction (%) 14 DAA Obs,[5]; Haloxyfop-P 35 g ae/ha,0%
same,Visual Growth Reduction (%) 14 DAA Obs,[5]; Haloxyfop-P 70 g ae/ha,0%
same,Visual Growth Reduction (%) 14 DAA Obs,[5]; Haloxyfop-P 140 g ae/ha,0%
same,Visual Growth Reduction (%) 14 DAA Obs,[7]; Haloxyfop-P 35 g ae/ha,0%
same,Visual Growth Reduction (%) 14 DAA Obs,[7]; Haloxyfop-P 70 g ae/ha,0%
same,Visual Growth Reduction (%) 14 DAA Obs,[7]; Haloxyfop-P 140 g ae/ha,0%
same,Visual Growth Reduction (%) 14 DAA Obs,[12]; Haloxyfop-P 35 g ae/ha,0%
same,Visual Growth Reduction (%) 14 DAA Obs,[12]; Haloxyfop-P 70 g ae/ha,0%
same,Visual Growth Reduction (%) 14 DAA Obs,[12]; Haloxyfop-P 140 g ae/ha,0%
same,Visual Growth Reduction (%) 14 DAA Obs,[15]; Haloxyfop-P 35 g ae/ha,0%
same,Visual Growth Reduction (%) 14 DAA Obs,[15]; Haloxyfop-P 70 g ae/ha,0%
same,Visual Growth Reduction (%) 14 DAA Obs,[15]; Haloxyfop-P 140 g ae/ha,0%
same,Visual Growth Reduction (%) 14 DAA Obs,[16]; Haloxyfop-P 35 g ae/ha,0%
same,Visual Growth Reduction (%) 14 DAA Obs,[16]; Haloxyfop-P 70 g ae/ha,0%
same,Visual Growth Reduction (%) 14 DAA Obs,[16]; Haloxyfop-P 140 g ae/ha,0%
